Patent publication US10024856B2, “Identification and characterization of a peptide affinity reagent for the detection of noroviruses in clinical samples” (priority 2013, dated 2018)

Tested on: NV-VLP
Conditions: 0-5 μg NV-VLP adsorbed on 96-well plate; 5×10^10 pfu of phage; HRP-conjugated M13 phage antibody
Method: NV-VLP (5, 2.5, 1.25, 0.63 μg) or 5 μg of unrelated protein BSA was immobilized and binding of each phage, indicated on the X-axis, was detected by M13 phage antibody. OD450 signal is indicated on the Y-axis.
Enzyme-linked immunosorbent assay (ELISA)—Initial ELISA experiments were performed by directly coating 0-5 μg of NV-VLP in 96-well polystyrene plates overnight. Wells were blocked with 2% milk in PBS for 2 hours at room temperature. After washing 3 times with PBS, 1×10^11 phage in 1% milk-PBS were added and incubated at room temperature with gentle rocking for 2 hours. Plates were washed 10 times with PBS-T. HRP-conjugated M13-antibody (Pharmacia Biotech) was diluted 1:5000 in 1% milk PBS and 100 μl was added to each well and incubated at room temperature for 45 minutes. After washing with PBS-T, HRP substrate, 3,3′,5′-tetramethylbenzidine (TMB)(KPL) was added to each well. Development was allowed to proceed for 10-20 minutes and stopped with 1M H3PO4 (KPL). Optical density was measured at 450 nm on a Tecan infinite M200pro plate reader.
The binding of each phage clone to immobilized NV-VLP was tested by phage ELISA. For these experiments, 0-5 μg of NV-VLP or bovine serum albumin (BSA), as a negative control, was adsorbed onto a 96-well plate and 5×10^10 pfu of phage were added to each well and binding was detected with an HRP-conjugated M13 phage antibody (FIG. 1).

Chain of NV-VLP (Q83884 whole entry): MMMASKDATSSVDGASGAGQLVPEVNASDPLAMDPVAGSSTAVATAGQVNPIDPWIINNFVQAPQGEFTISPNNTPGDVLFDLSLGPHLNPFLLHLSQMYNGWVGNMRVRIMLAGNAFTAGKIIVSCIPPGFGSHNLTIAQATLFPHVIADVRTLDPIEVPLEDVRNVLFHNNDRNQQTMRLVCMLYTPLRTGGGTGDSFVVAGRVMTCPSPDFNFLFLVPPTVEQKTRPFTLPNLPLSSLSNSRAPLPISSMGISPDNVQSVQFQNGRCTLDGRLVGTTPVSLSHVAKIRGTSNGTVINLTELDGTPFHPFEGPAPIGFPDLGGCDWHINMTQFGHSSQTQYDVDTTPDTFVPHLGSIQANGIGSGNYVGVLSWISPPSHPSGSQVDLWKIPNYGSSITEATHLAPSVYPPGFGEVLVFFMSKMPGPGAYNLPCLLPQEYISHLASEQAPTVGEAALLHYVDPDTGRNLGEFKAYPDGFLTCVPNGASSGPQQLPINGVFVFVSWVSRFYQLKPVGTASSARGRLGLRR

IQYRSWIPFSYP [NV-O-R5-6]
Binding to immobilized NV-VLP (ELISA signal, OD450): weakest signals
